# According to patent US20240108737A1, “ANTI-INFECTIVE BICYCLIC PEPTIDE LIGANDS” (priority 2021, published 2024):
# *1 amine or outer side, *2 acyl side, *3 side chain or, on linkers, in order; H or OH if unused. Where a SMILES comes first, the peptide text is derived from it. Bridges are numbered along the chain shown (N, C = ends). Roman numbers before positions name the chains, in order. [ ]: non-standard residue; d: D form. X1 = O=C(CCOCCOCCOCCOCCOCCOCCOCCOCCOCCOCCOCCOCCOCCOCCOCCOCCOCCOCCOCCOCCOCCOCCOCCOCCn1cc(CCC(=O)[*:2])nn1)[*:1]; TATB = O=C(C[*:1])N1CN(C(=O)C[*:2])CN(C(=O)C[*:3])C1; X2 = C(c1nc(C[*:2])nc(C[*:3])n1)[*:1]; hArg = N=C(N)NCCCC[C@H](N)C(=O)O; tBuAla = CC(C)(C)C[C@H](N)C(=O)O
# Test system: SARS-CoV-2 pseudotyped HIV-1 virions, D614G
smiles,measurement,value
CC(=O)N[C@H]1CSCC(=O)N2CN3CN(C2)C(=O)CSC[C@H](NC(=O)[C@H](C(C)C)NC(=O)[C@@H]2CCCN2C(=O)[C@H](CC(N)=O)NC(=O)[C@H](CC(=O)O)NC(=O)[C@@H]2CCCN2C(=O)[C@H](CC(N)=O)NC(=O)[C@H](C)NC1=O)C(=O)N[C@@H](CCCNC(=N)N)C(=O)N[C@@H](Cc1ccccc1)C(=O)N[C@@H](Cc1ccc(O)cc1)C(=O)N[C@H](C(=O)N[C@@H](CCCCNC(=O)CCOCCOCCOCCOCCOCCOCCOCCOCCOCCOCCOCCOCCOCCOCCOCCOCCOCCOCCOCCOCCOCCOCCOCCOCCn1cc(CCC(=O)NCCCC[C@H](NC(=O)[C@@H]2CSCc4nc5nc(n4)CSC[C@H](NC(C)=O)C(=O)N4CCC[C@H]4C(=O)N[C@@H](Cc4ccc(O)cc4)C(=O)N[C@@H](C(C)C)C(=O)N[C@@H](C)C(=O)NCC(=O)N[C@@H](CCCCNC(=N)N)C(=O)N[C@H](C)C(=O)N[C@@H]([C@@H](C)O)C(=O)N[C@@H](CSC5)C(=O)N[C@@H](CC(C)C)C(=O)N[C@@H](CC(C)(C)C)C(=O)N2)C(N)=O)nn1)C(N)=O)CSCC3=O [BCY18786] (I: Ac-CANPDNPVCRFYCK-NH2 / II: Ac-CPYVAG[hArg][dA]TCL[tBuAla]CK-NH2; linker I:1-I:9-I:13 via TATB; linker I:14-II:14 via X1; linker II:1-II:10-II:13 via X2),IC50,20 nM
